This note sets out measurements from patent US9492485B2, “Pluripotent stem cell-derived brown adipocytes, pluripotent stem cell-derived cell aggregate, method for producing same, and cell therapy and medical therapy therefor” (ID Pharma Co., Ltd., priority 2011, dated 2016).

Assay [1] relates to undifferentiated human iPS cells. The experiment in a line: Oxygen consumption (OCR) with XF96 Extracellular Flux Analyzer. The note with it: CL316,243 100 nM or isoproterenol 100 μM, 4 hours (FIG. 12B left). The format is cell-based.
In assay [2] the test system is white adipocytes produced from human mesenchymal stem cells (MSCs). The assay is described as above. The format is cell-based. The note with it: CL316,243 100 nM or isoproterenol 100 μM, 4 hours (FIG. 12C).
For assay [3], the system named is undifferentiated human ES cells. The assay is described as above. The format is cell-based. The note with it: CL316,243 100 nM or isoproterenol 100 μM, 4 hours (FIG. 12A left).
The test system of assay [4] is brown adipocytes derived from human iPS cells. The assay is described as above. The format is cell-based. The note with it: CL316,243 100 nM or isoproterenol 100 μM, 4 hours (FIG. 12B right). As for the experimental part:
(§1) Brown adipocytes were differentiated from KhES-3 and SeV-iPS cell lines in accordance with the method described in Example 5. Here, the adhesion culture in the step (B) for differentiation induction was carried out using a 96-well plate for exclusive use in XF96 Extracellular Flux Analyzer (Seahorse Bioscience Inc., Billerica, Mass.) after coating with 0.1% gelatin. The cell aggregates were seeded at an amount of 30 cell aggregates per well. The cell aggregates seeded in the 96-well plate were incubated in a 5% CO2 incubator at 37° C. for 2 days. Subsequently, isoproterenol (100 μM) or CL316,243 (100 nM) was added to a half of the wells, and incubation was further carried out in a 5% CO2 incubator at 37° C. for 4 hours, followed by measurement of oxygen consumption (OCR) per minute with XF96 Extracellular Flux Analyzer (Seahorse Bioscience Inc., Billerica, Mass.).

The subject of assay [5] is brown adipocytes derived from human ES cells. The assay is described as above. The format is cell-based. The note with it: CL316,243 100 nM or isoproterenol 100 μM, 4 hours (FIG. 12A right). As to the method: as §1
The subject of assay [6] is human ES cell-derived brown adipocytes. The experiment in a line: Influence of brown adipocyte stimulant on hematopoietic cytokine expression levels. The format is cell-based. The note with it: treatment with isoproterenol (FIG. 16E).
Assay [7] relates to brown adipocytes produced from KhES-3 cell line and SeV-iPS cell line. As to the kind of experiment: RT-PCR of PRDM16 and UCP1 gene expression after addition of adrenaline receptor agonist. The format is cell-based, human. The note with it: 100 μM, 4 hours, RT-PCR (FIG. 10). As for the experimental part: Brown adipocytes were produced from KhES-3 cell line and SeV-iPS cell line in accordance with the method described in Example 5 and were reacted with 100 μM of an adrenaline receptor agonist, isoproterenol, for 4 hours. In order to evaluate the activation of the brown adipocytes by the addition of the adrenaline receptor agonist, the expressions of the PRDM16 and UCP1 genes were investigated by RT-PCR.

Assay [8] relates to 10-week old mice (male, ICR strain). As to the kind of experiment: Relief of 5-fluorouracil-induced myelosuppression in mice, bone marrow cell count. The format is in vivo, mouse. The note with it: 5-FU 100 mg/kg; isoproterenol 30 μmol/kg on 3 to 6 days after; vs saline; P=0.032 (FIG. 16F). As to the method:
Furthermore, whether or not a brown adipocyte stimulant has an effect of relieving a severe side effect of anticancer drug administration, myelosuppression, was investigated. Specifically, an anticancer drug, 5-fluorouracil (5-FU), was administered to 10-week old mice (male, ICR strain) at a dose of 100 mg/kg. Isoproterenol (30 μmol/kg) or saline was administered to the mice on 3 to 6 days after the administration, and bone marrow cells were collected from the thighbone over time and were counted.

For `C[C@H](Cc1ccc2c(c1)OC(C(=O)[O-])(C(=O)[O-])O2)NC[C@H](O)c1cccc(Cl)c1.[Na+].[Na+]` [CL316,243], the OCR value result is recorded as “no change” in assay [1]; “no change” in assay [2]; “no change” in assay [3]; “significant increase” in assay [4]; “significant increase” in assay [5].
With `CC(C)NCC(O)c1ccc(O)c(O)c1` (stereo not drawn) [isoproterenol], the “expression levels of cytokines (TPO, IL6, IL3, G-CSF, GM-CSF, EPO)” value in assay [6] is given as “increased”. For the same molecule, in assay [7], the “expression of the PRDM16 gene” value is “increase” and the “expression of the UCP1 gene” value is given as “increase”. Also, the “number of bone marrow cells on the 7th day from the 5-FU administration” value in assay [8] is “significantly increased”.
